Data on two substances can be found in EP2255814A1, “AGENT FOR INCREASING THE QUANTITY OF HYALURONIC ACID” (Nagase ChemteX Corporation, priority 2008, dated 2009).

One assay has as its system hyaluronan synthase HAS2. The assay can be described thus: Augmentation effect on mRNA expression of hyaluronan synthase HAS2 (semi-quantitative RT-PCR). The following applies: human fibroblast NHDF(AD), phospholipid liposome in culture medium, 24 hours; concentrations only in Fig. 1. It is filed as cell-based. As for the experimental part:
Normal human fibroblasts (NHDF(AD); Kurabo Industries Ltd.) were seeded at 8×10^5/well in 6-well plates. After 24-hour preculture, the culture media were removed and replaced with culture media each containing a different phospholipid liposome prepared in Preparation Examples 2 to 4. The culture was maintained for 24 hours. Then, after removal of the culture medium and addition of 1 mL of ISOGEN (NIPPON GENE), RNA was extracted from the cells according to the usual method described in the attachment of ISOGEN.
cDNA preparation was performed using SuperScriptIII First-Strand Synthesis System for RT-PCR (Invitrogen) according to the operating procedures described in the attachment of the kit. RT-PCR was performed using primers below. HAS2 (Forward): […] (SEQ ID NO: 1) HAS2 (Reverse): […] (SEQ ID NO: 2) β-actin (Forward): […] (SEQ ID NO: 3) β-actin (Reverse): […] (SEQ ID NO: 4)
Using each of the obtained cDNA and the HAS2 primer set, PCR was performed for 29 cycles of 94°C for 1 min, 58°C for 1 min, and 72°C for 1 min. […] After completion of PCR, the PCR product was analyzed by electrophoresis in 1.5% agarose gel. Each band strength was determined by densitometry and the degree of increase in HAS2 mRNA expression was semi-quantitatively assessed by comparison of the HAS2/β-actin ratios between samples and the control. […]

Assay [1] deals with Normal human dermal fibroblasts (NHDF(AD)). The assay can be described thus: Hyaluronan production promoting effect in fibroblasts (ELISA of culture supernatant). It is filed as cell-based. The following applies: phospholipid liposome at 100 µg/mL, 24 hours. As to the method:
Normal human dermal fibroblasts (NHDF(AD); Kurabo Industries, Ltd.) were seeded at 2×10^5/well in 24-well plates. After 24-hour preculture, the culture media were removed and replaced with culture media each containing a different phospholipid liposome at 100 µg/mL, i.e. , the PI-PS containing liposome obtained in Preparation Example 2, the PI liposome obtained in Preparation Example 3, or the PS liposome obtained in Preparation Example 4. The culture was maintained for 24 hours. The culture supernatant was collected and hyaluronan therein was quantified by the ELISA method.
A hyaluronan binding protein (HABP; SEIKAGAKU CORPORATION) was added at 2 µg/mL to 96-well plates, which were then allowed to stand at 4°C for 24 hours. After this, the wells were washed. Blocking was performed at 4°C for 24 hours using Block Ace (Dainippon Sumitomo Pharma Co., Ltd.). After the wells were washed, a hyaluronan standard (Wako Pure Chemical Industries, Ltd.) or the culture supernatant was added to the wells and 1-hour incubation was performed at 37°C. After the wells were washed, biotinylated HABP (SEIKAGAKU CORPORATION) was added to the wells and 2-hour incubation was performed at 37°C. […] After the reaction at 37°C for 30 minutes, the absorbance at 405 nm was measured.
Background: In an ELISA, binding on a coated surface is turned into a signal by an enzyme label.

In the case of L-α-phosphatidylinositol Na [PI], in the assay on hyaluronan synthase HAS2, the “mRNA expression of HAS2 (HAS2/β-actin ratio relative to control cells)” value is reported as “significantly increased”. The production of hyaluronan entry in assay [1] is “significantly increased”.
L-α-phosphatidylserine [PS]: the “mRNA expression of HAS2 (HAS2/β-actin ratio relative to control cells)” value in the assay on hyaluronan synthase HAS2 was “significantly increased”. The production of hyaluronan result in assay [1] is reported as “significantly increased”.
